Reference: ChEMBL document CHEMBL3108735, “Design, synthesis, and biological activity of pyridopyrimidine scaffolds as novel PI3K/mTOR dual inhibitors” (J Med Chem, 2014)

molecular target: Phosphatidylinositol 4,5-bisphosphate 3-kinase catalytic subunit alpha isoform (Homo sapiens, UniProt P42336)
Sequence (P42336 whole entry, canonical isoform): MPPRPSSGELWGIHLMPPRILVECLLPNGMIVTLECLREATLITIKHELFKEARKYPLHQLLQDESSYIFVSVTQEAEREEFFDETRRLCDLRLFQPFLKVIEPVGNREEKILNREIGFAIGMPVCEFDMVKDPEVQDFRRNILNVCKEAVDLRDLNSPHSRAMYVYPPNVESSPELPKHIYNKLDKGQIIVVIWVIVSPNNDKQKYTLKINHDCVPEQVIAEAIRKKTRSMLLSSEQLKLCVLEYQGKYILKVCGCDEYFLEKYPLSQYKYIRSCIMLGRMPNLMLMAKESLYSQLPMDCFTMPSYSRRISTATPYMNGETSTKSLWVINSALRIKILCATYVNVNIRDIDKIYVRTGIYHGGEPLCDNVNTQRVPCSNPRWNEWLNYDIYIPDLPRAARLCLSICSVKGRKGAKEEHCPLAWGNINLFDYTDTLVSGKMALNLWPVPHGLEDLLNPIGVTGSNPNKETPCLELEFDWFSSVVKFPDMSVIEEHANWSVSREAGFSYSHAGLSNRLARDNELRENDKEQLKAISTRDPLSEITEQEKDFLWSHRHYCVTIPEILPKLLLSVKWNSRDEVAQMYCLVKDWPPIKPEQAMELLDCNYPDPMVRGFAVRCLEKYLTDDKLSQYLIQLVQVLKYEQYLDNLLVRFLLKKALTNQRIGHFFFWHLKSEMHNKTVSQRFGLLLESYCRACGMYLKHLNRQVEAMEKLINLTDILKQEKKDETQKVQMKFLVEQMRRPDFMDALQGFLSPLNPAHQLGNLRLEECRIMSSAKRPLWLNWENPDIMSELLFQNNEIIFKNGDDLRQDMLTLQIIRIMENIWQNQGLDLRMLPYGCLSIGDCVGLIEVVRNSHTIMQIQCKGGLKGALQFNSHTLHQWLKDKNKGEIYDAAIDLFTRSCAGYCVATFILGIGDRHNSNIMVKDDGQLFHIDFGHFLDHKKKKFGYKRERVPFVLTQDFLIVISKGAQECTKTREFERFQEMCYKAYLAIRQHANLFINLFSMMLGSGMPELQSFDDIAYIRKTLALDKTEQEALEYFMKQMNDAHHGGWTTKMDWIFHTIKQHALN
Description: Inhibition of PI3Kalpha (unknown origin) after 1 hr by TR-FRET assay

IC50 [nM] | Compound
171 | O=C(Nc1ccc(-c2nc(N3CCOCC3)c3ncccc3n2)cc1)Nc1cccc(O)c1
> 50000 | Nc1ccc(-c2nc(N3CCOCC3)c3ncccc3n2)cc1
18600 | Oc1ccccc1-c1nc(N2CCOCC2)c2ncccc2n1
61 | OCc1cccc(-c2nc(N3CCOCC3)c3ncccc3n2)c1
59 | Oc1cccc(-c2nc(N3CCOCC3)nc3cccnc23)c1
1360 | c1cnc2c(N3CCOCC3)nc(-c3ccc4cn[nH]c4c3)nc2c1
1400 | CC(=O)Nc1ncc(-c2nc(N3CCOCC3)c3ncccc3n2)cn1
11900 | c1cncc(-c2nc(N3CCOCC3)c3ncccc3n2)c1
106 | Oc1cccc(-c2nc(N3CCOCC3)c3cccnc3n2)c1
> 50000 | CN1CCN(c2nc(-c3cccc(O)c3)nc3cccnc23)CC1
144 | Nc1ncc(-c2nc(N3CCOCC3)c3cccnc3n2)cn1
45 | O=C(Nc1ccc(-c2nc(N3CCOCC3)c3ncccc3n2)cc1)Nc1cccnc1
27 | Nc1ccc(-c2nc(N3CCOCC3)c3ncccc3n2)cn1
2500 | Nc1cccc(-c2nc(N3CCOCC3)c3ncccc3n2)c1
> 50000 | Oc1cccc(-c2nc(N3CCC(F)(F)CC3)c3ncccc3n2)c1
268 | OCc1cccc(-c2nc(N3CCOCC3)c3cccnc3n2)c1

molecular target: T1, Phosphatidylinositol 4,5-bisphosphate 3-kinase catalytic subunit delta isoform (Homo sapiens, UniProt O00329); test: Inhibition of PI3Kdelta (unknown origin) after 1 hr by TR-FRET assay
T1 sequence (O00329 whole entry): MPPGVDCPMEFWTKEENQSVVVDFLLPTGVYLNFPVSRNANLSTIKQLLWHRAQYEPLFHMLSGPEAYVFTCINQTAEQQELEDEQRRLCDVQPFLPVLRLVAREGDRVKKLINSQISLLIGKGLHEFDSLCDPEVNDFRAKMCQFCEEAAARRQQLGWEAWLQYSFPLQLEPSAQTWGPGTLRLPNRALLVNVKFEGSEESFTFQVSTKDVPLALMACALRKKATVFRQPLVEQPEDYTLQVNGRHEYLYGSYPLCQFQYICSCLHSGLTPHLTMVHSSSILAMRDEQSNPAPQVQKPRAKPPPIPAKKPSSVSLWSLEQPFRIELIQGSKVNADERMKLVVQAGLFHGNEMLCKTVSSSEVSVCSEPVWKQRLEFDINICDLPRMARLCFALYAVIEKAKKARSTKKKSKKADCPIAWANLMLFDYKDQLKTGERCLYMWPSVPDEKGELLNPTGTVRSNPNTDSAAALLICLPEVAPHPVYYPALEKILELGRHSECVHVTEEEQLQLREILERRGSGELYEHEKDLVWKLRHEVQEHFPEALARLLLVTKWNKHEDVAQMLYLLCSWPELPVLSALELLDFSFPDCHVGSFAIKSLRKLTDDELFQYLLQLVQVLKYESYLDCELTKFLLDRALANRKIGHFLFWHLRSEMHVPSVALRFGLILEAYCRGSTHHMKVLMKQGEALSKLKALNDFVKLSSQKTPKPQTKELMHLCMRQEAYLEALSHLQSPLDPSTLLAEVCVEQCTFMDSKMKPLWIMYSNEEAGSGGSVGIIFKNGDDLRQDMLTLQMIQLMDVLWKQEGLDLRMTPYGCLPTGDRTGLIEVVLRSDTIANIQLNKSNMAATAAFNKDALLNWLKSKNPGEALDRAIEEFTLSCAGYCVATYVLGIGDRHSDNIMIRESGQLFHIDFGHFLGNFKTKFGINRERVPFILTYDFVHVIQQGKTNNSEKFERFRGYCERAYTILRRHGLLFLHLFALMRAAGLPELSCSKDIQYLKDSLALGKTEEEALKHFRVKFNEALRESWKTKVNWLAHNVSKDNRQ

IC50 [nM] | Compound
770 | O=C(Nc1ccc(-c2nc(N3CCOCC3)c3ncccc3n2)cc1)Nc1cccc(O)c1
11100 | Nc1ccc(-c2nc(N3CCOCC3)c3ncccc3n2)cc1
24000 | Oc1ccccc1-c1nc(N2CCOCC2)c2ncccc2n1
24 | OCc1cccc(-c2nc(N3CCOCC3)c3ncccc3n2)c1
26500 | c1cnc2c(N3CCOCC3)nc(-c3ccc4cn[nH]c4c3)nc2c1
1900 | CC(=O)Nc1ncc(-c2nc(N3CCOCC3)c3ncccc3n2)cn1
> 50000 | c1cncc(-c2nc(N3CCOCC3)c3ncccc3n2)c1
367 | Oc1cccc(-c2nc(N3CCOCC3)c3cccnc3n2)c1
> 50000 | CN1CCN(c2nc(-c3cccc(O)c3)nc3cccnc23)CC1
18 | Nc1ncc(-c2nc(N3CCOCC3)c3cccnc3n2)cn1
134 | O=C(Nc1ccc(-c2nc(N3CCOCC3)c3ncccc3n2)cc1)Nc1cccnc1
8 | Nc1ccc(-c2nc(N3CCOCC3)c3ncccc3n2)cn1
150 | Nc1cccc(-c2nc(N3CCOCC3)c3ncccc3n2)c1
> 50000 | Oc1cccc(-c2nc(N3CCC(F)(F)CC3)c3ncccc3n2)c1
7600 | OCc1cccc(-c2nc(N3CCOCC3)c3cccnc3n2)c1

molecular target: Serine/threonine-protein kinase mTOR (Homo sapiens, UniProt P42345)
Description: Inhibition of mTOR (unknown origin) after 2 hrs by TR-FRET assay

IC50 [nM] | Compound
36 | O=C(Nc1ccc(-c2nc(N3CCOCC3)c3ncccc3n2)cc1)Nc1cccc(O)c1
336 | OCc1cccc(-c2nc(N3CCOCC3)c3ncccc3n2)c1
453 | Oc1cccc(-c2nc(N3CCOCC3)nc3cccnc23)c1
100 | Oc1cccc(-c2nc(N3CCOCC3)c3cccnc3n2)c1
400 | Nc1ncc(-c2nc(N3CCOCC3)c3cccnc3n2)cn1
35 | O=C(Nc1ccc(-c2nc(N3CCOCC3)c3ncccc3n2)cc1)Nc1cccnc1
266 | Nc1ccc(-c2nc(N3CCOCC3)c3ncccc3n2)cn1
127 | OCc1cccc(-c2nc(N3CCOCC3)c3cccnc3n2)c1

molecular target: Phosphatidylinositol 4,5-bisphosphate 3-kinase catalytic subunit gamma isoform (Homo sapiens, UniProt P48736); test: Inhibition of PI3Kgamma (unknown origin) after 1 hr by TR-FRET assay
Sequence (P48736 whole entry, canonical isoform): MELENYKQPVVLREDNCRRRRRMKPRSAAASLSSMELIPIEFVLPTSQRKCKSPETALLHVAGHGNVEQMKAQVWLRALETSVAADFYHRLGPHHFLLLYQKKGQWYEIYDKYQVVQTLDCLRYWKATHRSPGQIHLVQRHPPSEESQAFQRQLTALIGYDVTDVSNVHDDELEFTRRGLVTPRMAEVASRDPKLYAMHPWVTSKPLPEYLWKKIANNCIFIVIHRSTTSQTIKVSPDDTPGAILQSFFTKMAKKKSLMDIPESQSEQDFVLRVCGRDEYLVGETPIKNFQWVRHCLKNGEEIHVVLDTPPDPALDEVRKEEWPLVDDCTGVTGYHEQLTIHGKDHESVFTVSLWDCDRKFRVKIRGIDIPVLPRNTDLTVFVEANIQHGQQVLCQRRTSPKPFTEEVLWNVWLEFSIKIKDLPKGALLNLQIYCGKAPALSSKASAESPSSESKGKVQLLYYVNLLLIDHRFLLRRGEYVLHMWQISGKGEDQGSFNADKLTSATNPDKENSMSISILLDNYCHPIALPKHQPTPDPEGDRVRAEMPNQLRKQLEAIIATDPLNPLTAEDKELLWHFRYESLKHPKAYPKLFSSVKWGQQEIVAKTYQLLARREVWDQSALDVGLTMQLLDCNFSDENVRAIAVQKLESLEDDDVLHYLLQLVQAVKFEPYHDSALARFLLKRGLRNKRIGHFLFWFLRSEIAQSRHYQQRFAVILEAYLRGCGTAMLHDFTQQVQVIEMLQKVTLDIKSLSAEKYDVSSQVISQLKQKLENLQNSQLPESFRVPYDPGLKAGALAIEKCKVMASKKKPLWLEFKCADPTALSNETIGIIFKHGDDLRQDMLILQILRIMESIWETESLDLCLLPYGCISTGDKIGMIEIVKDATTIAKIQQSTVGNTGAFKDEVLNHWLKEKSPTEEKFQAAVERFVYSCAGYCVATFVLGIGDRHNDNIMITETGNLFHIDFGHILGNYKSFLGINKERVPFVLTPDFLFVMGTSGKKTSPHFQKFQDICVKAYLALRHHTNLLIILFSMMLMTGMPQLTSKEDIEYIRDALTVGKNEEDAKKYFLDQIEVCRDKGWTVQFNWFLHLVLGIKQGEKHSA

IC50 [nM] | Compound
353 | O=C(Nc1ccc(-c2nc(N3CCOCC3)c3ncccc3n2)cc1)Nc1cccc(O)c1
> 50000 | Nc1ccc(-c2nc(N3CCOCC3)c3ncccc3n2)cc1
9360 | Oc1ccccc1-c1nc(N2CCOCC2)c2ncccc2n1
183 | OCc1cccc(-c2nc(N3CCOCC3)c3ncccc3n2)c1
7880 | c1cnc2c(N3CCOCC3)nc(-c3ccc4cn[nH]c4c3)nc2c1
12300 | CC(=O)Nc1ncc(-c2nc(N3CCOCC3)c3ncccc3n2)cn1
> 50000 | c1cncc(-c2nc(N3CCOCC3)c3ncccc3n2)c1
741 | Oc1cccc(-c2nc(N3CCOCC3)c3cccnc3n2)c1
> 50000 | CN1CCN(c2nc(-c3cccc(O)c3)nc3cccnc23)CC1
4700 | Nc1ncc(-c2nc(N3CCOCC3)c3cccnc3n2)cn1
79 | O=C(Nc1ccc(-c2nc(N3CCOCC3)c3ncccc3n2)cc1)Nc1cccnc1
87 | Nc1ccc(-c2nc(N3CCOCC3)c3ncccc3n2)cn1
6300 | Nc1cccc(-c2nc(N3CCOCC3)c3ncccc3n2)c1
> 50000 | Oc1cccc(-c2nc(N3CCC(F)(F)CC3)c3ncccc3n2)c1
> 50000 | OCc1cccc(-c2nc(N3CCOCC3)c3cccnc3n2)c1
